Paper PMC10385865, “Synthesis and Anticancer Activity of Novel Dual Inhibitors of Human Protein Kinases CK2 and PIM-1” (Pharmaceutics, 2023)

Tests used:
[1] = test system: phosphorylation of Ser112 in BAD (marker of PIM-1 activity), CCRF-CEM; assay: Western blot/densitometry, intracellular PIM-1 inhibition, CCRF-CEM; type: cell-based, human; conditions: 48 h
Protocol: (§1) All the procedures are described in detail in Supplementary Materials (Section S3.3). The protein concentration was determined using a Bradford assay.
(§2) For densitometry, immunoblots were scanned using G Box Chemi (Syngene, Cambridge, UK), and the density of each lane of phosphorylated and total protein was quantified using GeneSys software (Syngene, Cambridge, UK). Phosphorylated protein densities were normalized to GAPDH densities, assuming 1 for untreated cells; then, they were converted to a percentage of the appropriate control.
(§3) The data obtained for p65 confirmed the intracellular inhibition of CK2 by the tested compounds in all the studied cell lines in a dose-dependent manner. […] Otherwise, Western blot data for BAD (a marker of PIM-1 activity) indicated inhibition of PIM-1 only in MCF-7 cells, with the most significant reduction in phosphorylated BAD in cells treated with 10 µM conc. of rac-6 (0.49 of control) (Figure 8b). Unexpectedly, the relative level of BAD-P in the drug-treated CCRF-CEM and K-562 cells was even higher than in control cells.
(§4) The following primary antibodies were used: anti-GAPDH (Millipore, St. Louis, MO, USA; […]
(§5) overnight, +4°C); anti-BAD (Apoptosis I Sampler Kit, # 612741, BD Biosciences, San Diego, CA, USA; 1:1000, overnight, +4°C), anti-phospho-BAD-Ser112 (CST, Beverly, MA, USA; 9291S, 1:500 overnight, +4°C). […]

[2] = test system: phosphorylation of Ser112 in BAD (marker of PIM-1 activity), MCF-7; assay: Western blot/densitometry, intracellular PIM-1 inhibition, MCF-7; type: cell-based, human; conditions: MCF-7, 10 µM, 48 h, densitometry
Protocol: as §1, §2, §3, §4, §5

## OC(CNc1nc2c(Br)c(Br)c(Br)c(Br)c2[nH]1)C(F)(F)F (racemic) [rac-6, 1,1,1-Trifluoro-3-[(4,5,6,7-tetrabromo-1H-benzimidazol-2-yl)amino]propan-2-ol]
[1]
  level of phosphorylated BAD (in words): increased level of phosphorylated BAD
[2]
  phosphorylated BAD, relative level: 0.49 of control
